Series [1] has as its system disseminated ovarian cancer model. The series is described as follows: Disseminated ovarian cancer model, intraperitoneal dosing. Format: in vivo, mice. The source says: In vivo, TRX-E-002-1, formulated in 20% SBECD, was active in a disseminated ovarian cancer model and a recurrent ovarian cancer model in which tumour recurrence is investigated following initial treatment of the OCSC2-inoculated mice with paclitaxel. In both models, TRX-E-002-1 inhibited tumour growth following once daily intraperitoneal administration.
The combination of TRX-E-002-1 and cisplatin was investigated in the murine model of disseminated ovarian cancer.

Series [2] deals with micronucleated polychromatic erythrocytes (PCEs) in bone marrow. The series is described as follows: Bone marrow micronucleus test. Format: in vivo, ARC(S) Swiss mice. To be noted: positive control group. On the procedure:
The assays were performed in compliance with GLP regulations.
The bone marrow micronucleus test was the in vivo part of the ICH genotoxicity testing battery and was conducted in ARC(S) Swiss mice. Eight groups of mice (10/sex/group) were given an intraperitoneal injection of vehicle (20% w/v SBECD) or Cantrixil at 50, 200 or 400 mg/kg and were killed 24 or 48 h later. Dimethyl-1,2 benzanthracene was used as the positive control. After preparation of the bone marrow cells, the number of micronucleated polychromatic erythrocytes (PCEs) was determined in 4000 PCEs per animal, and the proportion of PCEs in the total erythrocyte population in bone marrow was calculated from the examination of at least 500 erythrocytes as an index of bone marrow toxicity. […] The proportion of PCEs in the total erythrocyte population was decreased in both sexes at the 200 and 400 mg/kg doses at both kill times. TRX-E-002-1 is therefore considered clastogenic in this system at the described concentrations in vivo [the equivalent 200/400 mg/kg dose in a […] is 16.2 mg/kg (600 mg/m^2)/32.4 mg/kg (1200 mg/m^2) in a 60-kg human].

In series [3] the test system is mouse lymphoma L5178Y cells. The series is described as follows: In vitro mammalian cell mutation assay, thymidine kinase locus. On the procedure: Genotoxicity testing of TRX-E-002-1 was performed in an ICH-compliant test battery (see ICH Guideline S2A), comprising an in vitro bacterial reverse mutation test, an in vitro mammalian cell mutation assay and an in vivo rodent bone marrow micronucleus assay. The assays were performed in compliance with GLP regulations.
The in vitro mammalian cell mutation assay utilised the forward mutation system at the thymidine kinase locus of the mouse lymphoma L5178Y cells using a microtitre cloning technique. TRX-E-002-1 was tested in three experimental conditions: 3-h incubation at 37 °C with and without metabolic activation system (Aroclor-induced rat liver S9 mix), and a 24-h incubation without metabolic activation (i.e. continuous treatment).

Another series concerns c-Jun N-terminal kinase. Details: method as in PMID 27196760. Particulars: cited from earlier work.
Series [4] is described as follows: Rat pharmacokinetics after single intraperitoneal injection of 100 mg/kg. Format: in vivo, Sprague–Dawley rats. As for the experimental part:
The pharmacokinetics of TRX-E-002-1 was evaluated in male female Sprague–Dawley rats following a single intraperitoneal injection of 100 mg/kg TRX-E-002-1 in 20% SBECD vehicle. Absorption was rapid, with C max mean plasma concentrations reached 0.25/1 h after dosing in female/male rats. […] Mean plasma levels decreased to below the limit of quantification by 24 h (not shown). The AUC0−∞ value was 29,537 and 44,702 ng h/mL in female and male rats, respectively (Table 2). High tissue levels were observed 0.5–6 h after dosing, with levels higher than the plasma concentration in pancreas, ovaries, large intestine, skin, kidneys, liver, stomach and adrenal glands (not shown). Treatment of plasma and tissue samples with glucuronidase indicated the presence of low levels of a glucuronide conjugate of TRX-E-002-1 (not shown). Other metabolic pathways have not yet been investigated. […] Parent drug was excreted in the urine and faeces, and high levels of the glucuronide metabolite were found in the faeces.
Tissue concentrations of total drug (parent + glucuronide) were also similar to those in plasma except in liver, where they were 2–3 times higher.

A short description of series [5]: Second dog pharmacokinetic study, 10 mg/kg intraperitoneal, four dogs. Format: in vivo, beagle dogs. Particulars: dog M + F, 10 mg/kg i.p., second study. On the procedure: In beagle dogs, plasma concentrations of unconjugated TRX-E-002-1 at early time points (1–4 h’ post-dose) were 76–93% of the total levels (parent + glucuronide). At 8 h, the plasma concentrations of the glucuronide metabolites were similar to those of parent drug. By 24 h’ post-dose, the concentrations of TRX-E-002-1-glucuronide in plasma and gastrointestinal tissues (except colon) were 2–12 times higher than those of the parent drug. The increased levels of TRX-E-0021-glucuronide relative to those of parent drug at 24 h post-dose may reflect slower elimination of the glucuronide metabolites.

Series [6] can be described thus: Dog 14-day pilot toxicity study with toxicokinetics, intraperitoneal. Particulars: dog M + F, Day 1.
Procedure: For the dog 14-day pilot study, male and female beagle dogs were dosed once daily with intraperitoneal injections of vehicle (1:2 dilutions of 20% SBECD in 0.9% saline) or Cantrixil (10, 30 or 100 mg/kg) for 14 days. The doses were administered via an implanted catheter.
Where [7] appears, read: 10 μM SP600125, OCSC2 cells, Western blot.
Where [8] appears, read: female rats, 100 mg/kg i.p., plasma.

Each structure is given as a SMILES string. Like-named read-outs stand apart in the source and are kept apart here.

Turning to `N.N.[Cl][Pt][Cl]` [cisplatin, reference compound], the “tumour growth during the 16-day treatment period” value in series [1] (TRX-E-002-1 100 mg/kg once daily, cisplatin 5 mg/kg once weekly, or both) is listed as “significantly inhibited”. Further, the “tumour growth during the 5-week post-treatment period” value in series [1] (after 16-day treatment, TRX-E-002-1 100 mg/kg once daily, cisplatin 5 mg/kg once weekly, or both) was “decreased”.
Take `Cc1c2ccccc2c(C)c2c1ccc1ccccc12` [Dimethyl-1,2 benzanthracene, reference compound]: in series [2], the “frequency of micronucleated PCEs” value is “statistically significant increase” and the “proportion of PCEs” value is listed as “reduction”.
With `O=P1(N(CCCl)CCCl)NCCCO1` (centres unmarked) [cyclophosphamide], the mutant frequency entry in series [3] (positive control, presence of S9) is given as “expected increases”.
On to `COS(C)(=O)=O` [methyl methanesulfonate], for which the mutant frequency result in series [3] is “expected increases”.
Regarding `Oc1c2ccccc2c2c3c(cccc13)N=N2` [SP600125], in the series on c-Jun N-terminal kinase (setting [7]), the “TRX-E-002-1-induced phosphorylation of c-Jun” value is reported as “inhibited” and the “phosphorylation of ERK” value is recorded as “without affecting”. For the same compound, in the series on c-Jun N-terminal kinase (OCSC2 cells), the “effect on anti-tumour activity of 0.245 μM TRX-E-002-1” value was “blocked”.
With `COc1cc(C2COc3c(ccc(O)c3C)C2c2ccc(O)cc2)cc(OC)c1O` (racemic) [TRX-E-002], in series [4] (setting [8]), the AUClast is 29,396 ng h/mL and the C max turned out to be 8355 ng/mL. Besides, the elimination half-life result in series [4] (rats, interspecies comparison) is “about 2.5 h”. In series [5], the “AUC0−∞” value amounted to 1633 ng·h/mL, the AUClast was determined as 1630 ng·h/mL, the C max turned out to be 425 ng/mL and the T max is recorded as 2 h. Besides, the “T ½” value in series [5] came to 2.6 h. For the same compound, in series [6] (10 mg/kg i.p.), the “AUC0−∞” value was 4395 ng·h/mL, the AUClast is 4390 ng·h/mL, the C max turned out to be 626 ng/mL and the T max is reported as 2.0 h. Moreover, the “T ½” value in series [6] (10 mg/kg i.p.) stood at 2.6 h. Further, in series [6] (30 mg/kg i.p.), the “AUC0−∞” value is listed as 11,300 ng h/mL, the AUClast worked out at 8770 ng·h/mL, the T max is on record as 2.0 h and the “T ½” value came out at 2.5 h. In series [6] (100 mg/kg i.p.), the “AUC0−∞” value is given as 58,550 ng h/mL, the AUClast is given as 58,500 ng h/mL, the C max turned out to be 6795 ng/mL and the T max is on record as 1.25 h. The “T ½” value in series [6] (100 mg/kg i.p.) worked out at 2.2 h. Moreover, the tumour growth result in series [1] (100 mg/kg i.p. once daily in 20% SBECD for 13–14 days) is “significantly inhibited”.
